Test results as given in patent EP0486958A1, “Physostigmine derivatives” (MEDIOLANUM FARMACEUTICI s.r.l., priority 1990, dated 1992).
pIC50: −log10 of the molar value. Where “and” joins values, the source holds several entries; their conditions need not be identical. Identical values can stand only once. Like-named read-outs stand apart in the source and are kept apart here.

What was measured:
[1] = biological target: T1, Electric Eel acetylcholinesterase, type V.S. (Electrophorus electricus, UniProt O42275); test: Acetylcholinesterase inhibiting activity, test in vitro (Ellman method); format: biochemical; settings: 20 min incubation, 25°C, phosphate buffer pH 8
T1 construct: purchased Sigma Chemicals type V.S
T1 sequence (O42275 24-633): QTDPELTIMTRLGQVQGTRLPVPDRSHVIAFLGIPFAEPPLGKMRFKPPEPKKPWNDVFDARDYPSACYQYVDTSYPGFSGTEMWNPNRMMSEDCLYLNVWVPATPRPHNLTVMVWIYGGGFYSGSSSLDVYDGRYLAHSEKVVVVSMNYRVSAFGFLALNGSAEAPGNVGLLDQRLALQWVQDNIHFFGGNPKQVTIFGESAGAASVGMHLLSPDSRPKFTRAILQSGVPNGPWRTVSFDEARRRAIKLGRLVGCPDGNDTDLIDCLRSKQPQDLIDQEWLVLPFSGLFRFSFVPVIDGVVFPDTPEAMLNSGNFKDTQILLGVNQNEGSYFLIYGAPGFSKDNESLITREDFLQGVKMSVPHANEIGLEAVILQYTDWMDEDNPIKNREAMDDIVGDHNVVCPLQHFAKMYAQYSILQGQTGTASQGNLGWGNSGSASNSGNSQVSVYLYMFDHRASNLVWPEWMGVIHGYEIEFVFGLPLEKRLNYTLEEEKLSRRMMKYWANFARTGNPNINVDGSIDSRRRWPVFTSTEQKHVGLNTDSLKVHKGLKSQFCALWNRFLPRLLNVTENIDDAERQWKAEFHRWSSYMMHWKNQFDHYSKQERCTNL
Procedure: The acetylcholinesterase activity was determined by the method of Ellman et al. (Ellman, G.L. Courtney, K.D. Andres, V., Featherstone, R.M. A new and rapide colorimetric determination of acetylcholinesterase activity - Biochem. Pharm., 1961, 7, 88).
The Electric Eel acetylcholinesterase, type V.S. of Sigma Chemicals was employed.
To determine IC₅₀, the incubation medium consisted of: Ellman reagent (5,5'-Dithiobis-2-nitrobenzoic acid) 100 µl; enzymatic solution (5,5 units/ml) 35 µl; variable concentration inhibitor 50 µl; phosphate buffer (0.1 mol/l; pH 8) 3000 µl. After 20 min. incubation, 20 µl acetylcholine (0.075 mol/l) are added, and the spectrophotomer, with kinetic software and thermostated at 25°C, was read for 3-5 min. At this point the reaction is in the stationary state. The concentrations of the products apt to inhibit by 50% (IC₅₀) the enzyme activity were calculated.

Suiss female rats = test: Acute toxicity (LD₅₀); format: in vivo; settings: for acute toxicity lower than the one of physostigmine: relative to physostigmine
Procedure: (§1) The LD₅₀ acute toxicity of the compounds obtained in Examples 2,3,4 and 6 has evaluated on Suiss female rats.
(§2) The compounds were administered per os and endovenously to different groups of animals in the form of tatrates dissolved in water. (The endovenous administration provides the highest bio-availability of the products). The results are shown in Table 3, together with the comparison ones obtained employing physostigmine.

[2] = biological target: T2, brain acetylcholinesterase (Rattus norvegicus, UniProt P37136); test: Brain acetylcholinesterase activity after oral administration to rats (enzymatic dosage, Ellman method on isolated brains); format: in vivo, male CD/SD rats; settings: 50 mg/kg by gastric probe as tartrates in water, vs control group, individual animals; for % Variation of acetylcholinesterase at time 10′: 10′ after treatment; for % Variation of acetylcholinesterase at time 60′: 60′ after treatment; for % Variation of acetylcholinesterase at time 120′: 120′ after treatment
T2 construct: from tissue; host or cells: brain of male CD/SD rats
T2 sequence (P37136 32-614): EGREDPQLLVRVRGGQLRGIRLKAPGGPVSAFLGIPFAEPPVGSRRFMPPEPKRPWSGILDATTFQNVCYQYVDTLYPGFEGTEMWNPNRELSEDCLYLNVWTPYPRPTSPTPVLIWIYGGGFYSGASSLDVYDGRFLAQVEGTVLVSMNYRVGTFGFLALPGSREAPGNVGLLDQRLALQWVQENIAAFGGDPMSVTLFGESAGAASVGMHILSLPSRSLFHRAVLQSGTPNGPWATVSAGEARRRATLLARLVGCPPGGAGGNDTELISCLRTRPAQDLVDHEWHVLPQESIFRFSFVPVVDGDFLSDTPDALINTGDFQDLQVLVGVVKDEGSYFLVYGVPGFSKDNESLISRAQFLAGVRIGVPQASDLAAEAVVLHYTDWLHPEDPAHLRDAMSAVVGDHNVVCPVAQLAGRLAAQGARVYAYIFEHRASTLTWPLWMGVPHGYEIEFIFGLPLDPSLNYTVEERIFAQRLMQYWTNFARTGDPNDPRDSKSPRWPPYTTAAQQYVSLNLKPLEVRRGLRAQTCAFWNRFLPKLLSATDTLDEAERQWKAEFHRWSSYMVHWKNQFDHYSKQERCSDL
Procedure: The effects of the compounds of Examples 2 and 3 on the brain acetylcholinesterase activity of male CD/SD rats evaluation were administered by gastric probe at the dose of 50 mg/kg in the form of tartrates dissolved in water. The rats were previously kept from eating for 18 hrs. One group of rats treated by or with physiological solution served as control. The rats were sacrificed by decapitation at various times after the treatment with the products under examination. On the isolated brains the acetylcholinesterase activity was determined by the Ellman et al. method employed in the "vitro" tests.
The percentage variation of the acetylcholinesterase activity in the brain of the rats treated by or with the brains of rats treated with physiological solution (control group) was calculated.

Acute toxicity (LD₅₀) = format: in vivo, Suiss female rats; settings: rat, tartrates dissolved in water
Procedure: as §1, §2

acetylcholinesterase = acetylcholinesterase (Homo sapiens, UniProt P22303); settings: literature data; cited from earlier work
Chain of acetylcholinesterase (P22303 32-614): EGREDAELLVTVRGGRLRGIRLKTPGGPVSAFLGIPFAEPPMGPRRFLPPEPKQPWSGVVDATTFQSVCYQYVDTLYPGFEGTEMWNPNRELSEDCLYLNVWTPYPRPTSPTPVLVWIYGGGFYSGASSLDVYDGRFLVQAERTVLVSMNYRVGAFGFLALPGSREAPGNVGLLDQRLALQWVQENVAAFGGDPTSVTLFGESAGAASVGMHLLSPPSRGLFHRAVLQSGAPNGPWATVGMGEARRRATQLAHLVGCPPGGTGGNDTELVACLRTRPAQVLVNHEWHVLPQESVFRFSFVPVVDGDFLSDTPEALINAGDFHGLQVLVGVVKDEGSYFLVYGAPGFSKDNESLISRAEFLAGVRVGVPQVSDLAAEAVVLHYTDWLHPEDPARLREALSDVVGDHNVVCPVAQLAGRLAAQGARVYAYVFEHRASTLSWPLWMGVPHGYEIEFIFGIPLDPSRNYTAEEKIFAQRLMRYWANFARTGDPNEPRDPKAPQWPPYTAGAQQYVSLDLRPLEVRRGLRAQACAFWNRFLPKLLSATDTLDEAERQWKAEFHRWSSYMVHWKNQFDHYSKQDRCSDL

[3] = water, iv, endovenous, read-out: LD₅₀ endovenous
[4] = water, po, oral (per os), read-out: LD₅₀ oral

SMILES	pIC50 [1]	LD₅₀ endovenous (Suiss female rats; tartrates dissolved in water)	% Variation of acetylcholinesterase at time 10′ [2]	% Variation of acetylcholinesterase at time 60′ [2]	% Variation of acetylcholinesterase at time 120′ [2]	LD50 (Acute toxicity (LD₅₀); [3]) [mg/kg]	LD50 (Acute toxicity (LD₅₀); [4]) [mg/kg]	acute toxicity lower than the one of physostigmine (Suiss female rats)	other results
CCCN(C)C(=O)Oc1ccc2c(c1)[C@]1(C)CCN(C)[C@@H]1N2C (relative stereo) [Example 2, 1,2,3,3a,8,8a-hexaydro-1,3a,8-trimethylpyrrol(2,3-b)indol-5-ol(3aS-cis)-N-methyl,N-propylcarbamate (ester)]	5.96	>50 mg/kg and <100 mg/kg	–	–	–	–	–	–	LD₅₀ oral (Suiss female rats; oral (per os), tartrates dissolved in water): >100 mg/kg and <150 mg/kg
CCCCCN(C)C(=O)Oc1ccc2c(c1)[C@]1(C)CCN(C)[C@@H]1N2C [Example 3, 1,2,3,3a,8,8a-hexahydro-1,3a,8-trimethylpyrrol(2,3-b)indol-5-ol(3aS-cis)-N-methyl,N-pentylcarbamate (ester)]	5.72	<100 mg/kg	-60,1% and -53,8%	-69,6% and -70,9%	-72,0% and -68,0%	> 50	> 178	approximately 100 times	–
CCCCCCCN(C)C(=O)Oc1ccc2c(c1)[C@]1(C)CCN(C)[C@@H]1N2C [Example 4, 1,2,3,3a,8,8a-hexahydro-1,3a,8-trimethylpyrrol(2,3-b)indol-5-ol (3aS-cis) N-methyl,N-heptylcarbamate (ester)]	5.46	<100 mg/kg	0% and 5,7%	-52,7% and -47,1%	-54,5% and -56,5%	> 50	> 200	approximately 100 times	–
CN(Cc1ccccc1)C(=O)Oc1ccc2c(c1)[C@]1(C)CCN(C)[C@@H]1N2C [Example 6, 1,2,3,3a,8,8a-hexahydro-1,3a,8-trimethylpyrrol.(2,3-b)indol-5-ol (3aS-cis) N-methyl,N-benzyl carbamate (ester)]	6.00	–	–	–	–	< 50	~70	–	–
CNC(=O)Oc1ccc2c(c1)[C@]1(C)CCN(C)[C@@H]1N2C [Physostigmine]	–	–	–	–	–	–	–	–	LD50 (Acute toxicity (LD₅₀); female, Suiss, in vivo, intravenous, endovenous, read-out: LD₅₀ endovenous): 0.58 mg/kg; LD50 (Acute toxicity (LD₅₀); female, Suiss, in vivo, po, oral (per os), read-out: LD₅₀ oral): 2.2 mg/kg
CCN(CC)C(=O)Oc1ccc2c(c1)C1(C)CCN(C)C1N2C (stereo not shown) [diethylphysostigmine]	–	–	–	–	–	–	–	–	acetylcholinesterase inhibiting activity (acetylcholinesterase): low inhibiting activity
